According to patent US20240209028A1, “CNP COMPOUNDS” (priority 2022, published 2024):
Where two headings read alike, the source gives them in different places. Starred links: 1 amine or outer side, 2 acyl side, 3 side chain; linkers in the order of their positions; H or OH if unused. Positions of bridges follow the written chain, without caps; N, C: chain ends. Residues, ends and D or L forms follow the SMILES beside them. *: point of attachment. C18 diacid = O=C(O)CCCCCCCCCCCCCCCCC(=O)*; γGlu = O=C(O)[C@H](CCC(=O)[*:2])N[*:1]; AEEA = NCCOCCOCC(=O)O

Assays:
[1] = PK after i.v. and s.c. administration to Göttingen minipig; details: female, in vivo
Procedure, shortened: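 Female Göttingen minipigs (6-12 months, ~22 kg) and domestic LYD pigs (4-5 months, ~80 kg) given CNP compounds i.v. (30-60 or 15-43 nmol/kg) or s.c. neck (55-62 or 20-30 nmol/kg) via catheter/pen. EDTA plasma sampled up to 14 days, CNP and cGMP by LC-MS; non-compartmental PK, F from dose-normalized AUC s.c./i.v.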

neprilysin (NEP) = neprilysin (NEP) (Homo sapiens, UniProt P08473); assay: In vitro neprilysin stability; details: recombinant human neprilysin (rhNEP), pH 7.4
Procedure: Therefore, an in vitro neprilysin stability assay was set up to test the neprilysin mediated degradation of selected CNP compounds.
Procedure: In short, the assay buffer consisted of PBS-buffer (pH 7.4, ThermoFisher Scientific) with a final concentration of 0.005% v/v tween 20 (Sigma-Aldrich). Recombinant human neprilysin (rhNEP; R&D Systems) and the CNP compounds were dissolved in assay buffer. Native CNP22 (0065, Chem. 1) was included as positive control on each day of incubation. Initially, the CNP compound (the final concentration was 1000 nM) was pre-incubated in assay buffer for 10 min at 37° C. The assay was started by adding either rhNEP (final concentration was 2 μg protein per mL) or assay buffer (adsorption experiment) and the incubation was conducted at 37° C. […] The mixture was centrifuged at 13000 rpm at 4° C. for 20 minutes. After centrifugation, one volume of supernatant was mixed with one volume of Milli-Q water.
Analysis by LCMS: The mixture was analysed by LCMS using an Acquity UPLC Peptide CSH C18 analytical column from Waters (130 Å, 1.7 μm, 1*50 mm) operated at 60° C. A gradient elution was conducted with a Nexera UHPLC system (Shimadzu) using mobile phase A (consisting of Milli-Q water with 0.1% formic acid) and mobile phase B (consisting of acetonitrile with 0.1% formic acid). The flow was 0.3 ml/min. A zenoTOF 7600 mass spectrometer (Sciex) was used as detector and operated in positive electrospray ionisation mode. Data was recorded in full scan mode (m/z 300-1700).
Calibration curves were prepared in assay buffer and treated as study samples. These samples were used for calculating the concentration of the relevant CNP compound in the in vitro samples. Quality control samples were included. For at least 75% of the standards and QCs, the deviation between nominal and calculated concentration was below 20%.
All incubations were conducted in duplicate. Data was reported as percent remaining at 90 min (based on calculated concentrations) compared to the average concentration in the 0.5-minute time point samples.

[2] = Local tolerance of CNP compounds in rats (s.c. injection, histopathology); type: in vivo, Sprague Dawley rat; details: for assessment for human subcutaneous administration: based on rat local tolerance
Procedure: The purpose of this study was to evaluate the local tissue reaction to subcutaneous injection of CNP compounds in rats.
Procedure: The CNP compounds were formulated according to the principles described in General Methods of Preparation-Method G. Each Sprague Dawley rat (male, 10-11 weeks of age at arrival, Janvier, France) was dosed s.c. with 250 or 350 uL of the same compound (formulation concentration of 1000 nmol/mL) 120 h prior to tissue collection resulting in a total of two injections for each animal (Table 15). Injection site (flank or neck) was alternated across animals within each group and time point.
Animals had access to tap water and food (Altromin 1324) ad libitum. Group size was n=3 for vehicles and positive control, and n=4 for test compounds. Vehicles and compounds were formulated in either 5 mM sodium acetate, 250 mM glycerol, pH 4.0 or 8 mM sodium phosphate, 250 mM glycerol, pH 7.4 as shown in Table 16.
The animals were anesthetized with isoflurane. Via an electric shaving machine, a squared area of fur (2 cm×2 cm) was removed either from the rats' neck or flank area). For dosing, a new injection needle (25G canula, 1 ml syringe) was placed in the middle of the square border closest to the animal's head and the needle was inserted into the skin from the border towards the center of the square. […] On the day of tissue collection, the rats were deeply anaesthetized with isoflurane and euthanized by exsanguination. The injection sites were inspected and scored with regards to pathological lesions. The injection sites were evaluated, and any changes were noted (location, colour, shape and size), and sampled for histology preparation.
The injection sites were removed and fixed in 4% phosphate buffered neutral formaldehyde in sealed plastic containers.
Each injection site was subsequently cut into three sections 0.8 cm, 1.0 cm and 1.2 cm from the square border where the injection needle was placed, and, respectively, these sections represented the injection sites and the adjacent tissue. The tissue was processed, embedded in paraffin and cut in 2-4 μm thin sections, stained with the haematoxylin and eosin (H&E), and evaluated microscopically with a light microscope. Histopathological changes were graded on a 5-level scale (Minimal (Min), Mild (Mil), Moderate (Mod), Marked (Mar) and Severe (Sev)).

[3] = 5 days after subcutaneous injections in the rat

neprilysin (NEP), sequence (P08473 whole entry): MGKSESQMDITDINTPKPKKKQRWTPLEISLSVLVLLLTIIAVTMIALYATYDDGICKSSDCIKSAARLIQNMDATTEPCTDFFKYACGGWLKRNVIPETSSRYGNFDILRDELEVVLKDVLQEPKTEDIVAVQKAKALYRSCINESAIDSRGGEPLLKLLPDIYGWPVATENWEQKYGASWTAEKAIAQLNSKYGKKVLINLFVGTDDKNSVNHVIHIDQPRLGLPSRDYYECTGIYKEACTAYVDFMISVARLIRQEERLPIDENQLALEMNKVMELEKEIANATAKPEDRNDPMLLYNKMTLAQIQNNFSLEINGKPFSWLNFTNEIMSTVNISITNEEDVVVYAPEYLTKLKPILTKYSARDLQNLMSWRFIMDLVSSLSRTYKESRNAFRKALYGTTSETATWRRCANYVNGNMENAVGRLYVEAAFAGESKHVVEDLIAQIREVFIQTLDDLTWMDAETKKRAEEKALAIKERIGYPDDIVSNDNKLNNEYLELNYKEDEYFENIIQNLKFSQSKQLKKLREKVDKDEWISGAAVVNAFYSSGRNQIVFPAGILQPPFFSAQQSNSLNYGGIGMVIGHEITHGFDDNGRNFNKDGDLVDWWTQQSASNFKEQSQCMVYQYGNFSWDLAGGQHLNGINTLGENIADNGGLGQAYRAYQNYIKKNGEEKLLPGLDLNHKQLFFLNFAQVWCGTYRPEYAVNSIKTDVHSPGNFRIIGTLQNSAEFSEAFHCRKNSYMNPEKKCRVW

| SMILES | local subcutaneous necrosis [2, 3] | assessment for human subcutaneous administration [2] | other results |
| --- | --- | --- | --- |
| CC[C@H](C)[C@@H]1NC(=O)[C@H](CCCNC(=N)N)NC(=O)[C@H](CC(=O)O)NC(=O)[C@H](CC(C)C)NC(=O)[C@@H]2CCCN2C(=O)[C@H](CC(C)C)NC(=O)CNC(=O)[C@H](Cc2ccccc2)NC(=O)[C@@H](NC(=O)CNC(=O)[C@H](CCC(N)=O)NC(=O)[C@H](CO)NC(=O)CNC(=O)CNC(=O)[C@H](CCCCN)NC(=O)[C@H](CCCCN)NC(=O)[C@H](CCC(N)=O)NC(=O)[C@H](C)NC(=O)CNC(=O)[C@H](CCCCN)NC(=O)[C@H](Cc2ccc(O)cc2)NC(=O)COCCOCCNC(=O)COCCOCCNC(=O)COCCOCCNC(=O)COCCOCCNC(=O)CC[C@H](NC(=O)CC[C@H](NC(=O)CCCCCCCCCCCCCCCCC(=O)O)C(=O)O)C(=O)O)CSSC[C@@H](C(=O)O)NC(=O)CNC(=O)[C@H](CC(C)C)NC(=O)CNC(=O)[C@H](CO)NC(=O)[C@H](CC(C)C)NC(=O)[C@H](CO)NC(=O)CNC1=O [Compound 9435] ({C18 diacid-γGlu-γGlu-AEEA-AEEA-AEEA-AEEA}-YKGAQKKGGSQGCFGLPLDRIGSLSGLGC-OH; disulfide 13-29) |  |  | clearance ([1]; iv, Göttingen Minipig, i.v., read-out: CL (ml/hr/kg), Intravenous PK (converted)): 1.02 mL/h/kg; half-life ([1]; iv, Göttingen Minipig, i.v., read-out: T½, iv (converted)): 77 h; bioavailability ([1]; sc, Göttingen Minipig, s.c. bioavailability, read-out: F (%), Subcutaneous PK): 77%; half-life ([1]; sc, Göttingen Minipig, s.c., read-out: T½, sc (converted)): 82 h; remaining at 1.5 h, 1000 nM (neprilysin (NEP)): 93.2% |
| CC[C@H](C)[C@@H]1NC(=O)[C@H](CCCNC(=N)N)NC(=O)[C@H](CCC(=O)O)NC(=O)[C@H](CC(C)C)NC(=O)[C@H](CCCCN)NC(=O)[C@H](CC(C)C)NC(=O)CNC(=O)[C@H](Cc2ccccc2)NC(=O)[C@@H](NC(=O)CNC(=O)[C@H](CCCCN)NC(=O)[C@H](CO)NC(=O)[C@H](CC(C)C)NC(=O)CNC(=O)[C@H](CCCCN)NC(=O)[C@H](CCCCN)NC(=O)[C@H](CCC(N)=O)NC(=O)[C@H](C)NC(=O)CNC(=O)[C@H](CCCCN)NC(=O)[C@H](Cc2ccc(O)cc2)NC(=O)[C@H](CCCCN)NC(=O)[C@H](CCCNC(=N)N)NC(=O)[C@H](C)NC(=O)COCCOCCNC(=O)COCCOCCNC(=O)CC[C@H](NC(=O)CCCCCCCCCCCCCCCCC(=O)O)C(=O)O)CSSC[C@@H](C(=O)O)NC(=O)CNC(=O)[C@H](CC(C)C)NC(=O)CNC(=O)[C@H](CO)NC(=O)[C@H](CC(C)C)NC(=O)[C@H](CO)NC(=O)CNC1=O [compound 0776] ({C18 diacid-γGlu-AEEA-AEEA}-ARKYKGAQKKGLSKGCFGLKLERIGSLSGLGC-OH; disulfide 16-32) |  |  | bioavailability ([1]; Göttingen minipig and domestic LYD pig, minipig, sc): 7 to 13%; local subcutaneous necrosis ([2]; rat, in vivo, sc): moderate to marked |
| CC[C@H](C)[C@@H]1NC(=O)[C@H](CCCNC(=N)N)NC(=O)[C@H](CC(=O)O)NC(=O)[C@H](CC(C)C)NC(=O)[C@@H]2CCCN2C(=O)[C@H](CC(C)C)NC(=O)CNC(=O)[C@H](Cc2ccccc2)NC(=O)[C@@H](NC(=O)CNC(=O)[C@H](CO)NC(=O)[C@H](CO)NC(=O)[C@@H](NC(=O)CNC(=O)[C@@H](NC(=O)[C@H](Cc2c[nH]cn2)NC(=O)[C@H](CCC(N)=O)NC(=O)[C@H](C)NC(=O)CNC(=O)[C@H](Cc2c[nH]cn2)NC(=O)[C@H](Cc2ccc(O)cc2)NC(=O)[C@H](CCCCN)NC(=O)[C@H](CCCNC(=N)N)NC(=O)[C@H](C)NC(=O)COCCOCCNC(=O)COCCOCCNC(=O)CC[C@H](NC(=O)CCCCCCCCCCCCCCCCC(=O)O)C(=O)O)[C@@H](C)O)C(C)C)CSSC[C@@H](C(=O)O)NC(=O)CNC(=O)[C@H](CC(C)C)NC(=O)CNC(=O)[C@H](CO)NC(=O)[C@H](CC(C)C)NC(=O)[C@H](CO)NC(=O)CNC1=O [compound 1351] ({C18 diacid-γGlu-AEEA-AEEA}-ARKYHGAQHTGVSSGCFGLPLDRIGSLSGLGC-OH; disulfide 16-32) | no or mild | acceptable |  |
| CC[C@H](C)[C@@H]1NC(=O)[C@H](CCCNC(=N)N)NC(=O)[C@H](CC(=O)O)NC(=O)[C@H](CC(C)C)NC(=O)[C@@H]2CCCN2C(=O)[C@H](CC(C)C)NC(=O)CNC(=O)[C@H](Cc2ccccc2)NC(=O)[C@@H](NC(=O)CNC(=O)[C@H](CCCCN)NC(=O)[C@H](CO)NC(=O)[C@@H](NC(=O)CNC(=O)[C@@H](NC(=O)[C@H](Cc2c[nH]cn2)NC(=O)[C@H](CCC(N)=O)NC(=O)[C@H](C)NC(=O)CNC(=O)[C@H](Cc2c[nH]cn2)NC(=O)[C@H](Cc2ccc(O)cc2)NC(=O)[C@H](CCCCN)NC(=O)[C@H](CCCNC(=N)N)NC(=O)[C@H](C)NC(=O)COCCOCCNC(=O)COCCOCCNC(=O)CC[C@H](NC(=O)CC[C@H](NC(=O)CC[C@H](NC(=O)CCCCCCCCCCCCCCCCC(=O)O)C(=O)O)C(=O)O)C(=O)O)[C@@H](C)O)C(C)C)CSSC[C@@H](C(=O)O)NC(=O)CNC(=O)[C@H](CC(C)C)NC(=O)CNC(=O)[C@H](CO)NC(=O)[C@H](CC(C)C)NC(=O)[C@H](CO)NC(=O)CNC1=O [compound 1420] ({C18 diacid-γGlu-γGlu-γGlu-AEEA-AEEA}-ARKYHGAQHTGVSKGCFGLPLDRIGSLSGLGC-OH; disulfide 16-32) | no or mild | acceptable |  |
| CC[C@H](C)[C@@H]1NC(=O)[C@H](CCCNC(=N)N)NC(=O)[C@H](CC(=O)O)NC(=O)[C@H](CC(C)C)NC(=O)[C@@H]2CCCN2C(=O)[C@H](CC(C)C)NC(=O)CNC(=O)[C@H](Cc2ccccc2)NC(=O)[C@@H](NC(=O)CNC(=O)[C@H](CCC(N)=O)NC(=O)[C@H](CO)NC(=O)[C@H](CO)NC(=O)CNC(=O)[C@H](CCCCN)NC(=O)[C@H](CCCCN)NC(=O)[C@H](CCC(N)=O)NC(=O)[C@H](C)NC(=O)CNC(=O)[C@@H]2CCCN2C(=O)[C@H](C)NC(=O)[C@H](CCC(N)=O)NC(=O)CNC(=O)COCCOCCNC(=O)COCCOCCNC(=O)CC[C@H](NC(=O)CCCCCCCCCCCCCCCCC(=O)O)C(=O)O)CSSC[C@@H](C(=O)O)NC(=O)CNC(=O)[C@H](CC(C)C)NC(=O)CNC(=O)[C@H](CO)NC(=O)[C@H](CC(C)C)NC(=O)[C@H](CO)NC(=O)CNC1=O [compound 9384] ({C18 diacid-γGlu-AEEA-AEEA}-GQAPGAQKKGSSQGCFGLPLDRIGSLSGLGC-OH; disulfide 15-31; C-terminus assumed) | no or mild | acceptable |  |
| CC[C@H](C)[C@@H]1NC(=O)[C@H](CCCNC(=N)N)NC(=O)[C@H](CC(=O)O)NC(=O)[C@H](CC(C)C)NC(=O)[C@@H]2CCCN2C(=O)[C@H](CC(C)C)NC(=O)CNC(=O)[C@H](Cc2ccccc2)NC(=O)[C@@H](NC(=O)CNC(=O)[C@H](CCC(N)=O)NC(=O)[C@H](CO)NC(=O)[C@H](CC(C)C)NC(=O)CNC(=O)[C@H](CCCCN)NC(=O)[C@H](CCCCN)NC(=O)[C@H](CCC(N)=O)NC(=O)[C@H](C)NC(=O)CNC(=O)[C@H](CCCCN)NC(=O)[C@H](Cc2ccc(O)cc2)NC(=O)[C@H](CCCCN)NC(=O)[C@H](CCCNC(=N)N)NC(=O)[C@H](C)NC(=O)COCCOCCNC(=O)COCCOCCNC(=O)COCCOCCNC(=O)COCCOCCNC(=O)CC[C@H](NC(=O)CC[C@H](NC(=O)CC[C@H](NC(=O)CC[C@H](NC(=O)CC[C@H](NC(=O)CCCCCCCCCCCCCCCCC(=O)O)C(=O)O)C(=O)O)C(=O)O)C(=O)O)C(=O)O)CSSC[C@@H](C(=O)O)NC(=O)CNC(=O)[C@H](CC(C)C)NC(=O)CNC(=O)[C@H](CO)NC(=O)[C@H](CC(C)C)NC(=O)[C@H](CO)NC(=O)CNC1=O [compound 9407] ({C18 diacid-γGlu-γGlu-γGlu-γGlu-γGlu-AEEA-AEEA-AEEA-AEEA}-ARKYKGAQKKGLSQGCFGLPLDRIGSLSGLGC-OH; disulfide 16-32) | no or mild | acceptable |  |
